From ChEMBL document CHEMBL3885881, “DrugMatrix”

Species: Rattus norvegicus
Experiment: DrugMatrix - Regimen: Daily Repeat
Assay type: toxicity, organism-based, Sprague-Dawley
Parameters: regimen Daily Repeat, gender Male, age 6-8 weeks
Conditions: in vivo, po, route oral GAVAGE, vehicle .5 % CMC; for ABSOLUTE BASOPHIL / ABSOLUTE EOSINOPHIL / ABSOLUTE LYMPHOCYTE / ABSOLUTE MONOCYTE / ABSOLUTE SEGMENTED NEUTROPHIL / BASOPHIL / EOSINOPHIL / ERYTHROCYTE COUNT / HEMATOCRIT / HEMOGLOBIN / LEUKOCYTE COUNT / LYMPHOCYTE / MEAN CORPUSCULAR HEMOGLOBIN / MEAN CORPUSCULAR HEMOGLOBIN CONCENTRATION / MEAN CORPUSCULAR VOLUME / MONOCYTE / NEUTROPHIL / NUCLEATED RED BLOOD CELLS / PLATELET COUNT: tissue Blood; for ALANINE AMINOTRANSFERASE / ALBUMIN / ALKALINE PHOSPHATASE / ASPARTATE AMINOTRANSFERASE / BLOOD UREA NITROGEN / CARBON DIOXIDE / CHLORIDE / CHOLESTEROL / CREATINE PHOSPHOKINASE / CREATININE / GLUCOSE / LACTATE DEHYDROGENASE / LIPASE / PHOSPHORUS / POTASSIUM / SODIUM / TOTAL BILIRUBIN / TOTAL PROTEIN / URIC ACID: tissue Plasma
[1] = 0 mg/kg, 72 h, dose level Control, time 3 day
[2] = 0 mg/kg, 120 h, dose level Control, time 5 day
[3] = 15 mg/kg, 72 h, dose level Low, time 3 day
[4] = 15 mg/kg, 120 h, dose level Low, time 5 day

## C[C@@H]1O[C@@H](O[C@H]2C[C@@H](O)[C@]3(CO)[C@H]4[C@H](O)C[C@]5(C)[C@@H](C6=CC(=O)OC6)CC[C@]5(O)[C@@H]4CC[C@]3(O)C2)[C@H](O)[C@H](O)[C@H]1O [OUABAIN]
[1]
  ABSOLUTE BASOPHIL: 0 CELLS/uL
  ABSOLUTE EOSINOPHIL: 130.33 CELLS/uL
  ABSOLUTE LYMPHOCYTE: 10030.67 CELLS/uL
  ABSOLUTE MONOCYTE: 41 CELLS/uL
  ABSOLUTE SEGMENTED NEUTROPHIL: 1298 CELLS/uL
  BASOPHIL: 0%
  EOSINOPHIL: 1%
  ERYTHROCYTE COUNT: 5.22 x10E6/uL
  HEMATOCRIT: 33.53%
  HEMOGLOBIN: 12.73 G/DL
  LEUKOCYTE COUNT: 11.5 x10E3/uL
  LYMPHOCYTE: 87.67%
  MEAN CORPUSCULAR HEMOGLOBIN: 24.45 pg
  MEAN CORPUSCULAR HEMOGLOBIN CONCENTRATION: 37.97 G/DL
  MEAN CORPUSCULAR VOLUME: 64.33 fL
  MONOCYTE: 0.33%
  NEUTROPHIL: 11%
  NUCLEATED RED BLOOD CELLS: 0 /100WBC
  PLATELET COUNT: 1310.5 x10E3/uL
  ALANINE AMINOTRANSFERASE: 52 u/L
  ALBUMIN: 4.22 G/DL
  ALKALINE PHOSPHATASE: 340.17 u/L
  ASPARTATE AMINOTRANSFERASE: 87.5 u/L
  BLOOD UREA NITROGEN: 15.17 mg/dL
  CARBON DIOXIDE: 25.5 mmol/L
  CHLORIDE: 101.83 MEQ/L
  CHOLESTEROL: 68.17 mg/dL
  CREATINE PHOSPHOKINASE: 379.67 u/L
  CREATININE: 0.17 mg/dL
  GLUCOSE: 181.67 mg/dL
  LACTATE DEHYDROGENASE: 256.17 u/L
  LIPASE: 8 u/L
  PHOSPHORUS: 12.1 mg/dL
  POTASSIUM: 5.88 MEQ/L
  SODIUM: 143.67 MEQ/L
  TOTAL BILIRUBIN: 0.18 mg/dL
  TOTAL PROTEIN: 5.92 G/DL
  URIC ACID: 1.7 mg/dL
[2]
  ABSOLUTE BASOPHIL: 0 CELLS/uL
  ABSOLUTE EOSINOPHIL: 31 CELLS/uL
  ABSOLUTE LYMPHOCYTE: 9599.17 CELLS/uL
  ABSOLUTE MONOCYTE: 52.83 CELLS/uL
  ABSOLUTE SEGMENTED NEUTROPHIL: 1050.33 CELLS/uL
  BASOPHIL: 0%
  EOSINOPHIL: 0.33%
  ERYTHROCYTE COUNT: 5.53 x10E6/uL
  HEMATOCRIT: 35.8%
  HEMOGLOBIN: 13.53 G/DL
  LEUKOCYTE COUNT: 10.73 x10E3/uL
  LYMPHOCYTE: 89%
  MEAN CORPUSCULAR HEMOGLOBIN: 24.47 pg
  MEAN CORPUSCULAR HEMOGLOBIN CONCENTRATION: 37.82 G/DL
  MEAN CORPUSCULAR VOLUME: 64.7 fL
  MONOCYTE: 0.5%
  NEUTROPHIL: 10.17%
  NUCLEATED RED BLOOD CELLS: 0 /100WBC
  PLATELET COUNT: 1028.5 x10E3/uL
  ALANINE AMINOTRANSFERASE: 45.33 u/L
  ALBUMIN: 4.33 G/DL
  ALKALINE PHOSPHATASE: 351.83 u/L
  ASPARTATE AMINOTRANSFERASE: 73.5 u/L
  BLOOD UREA NITROGEN: 17.83 mg/dL
  CARBON DIOXIDE: 24.67 mmol/L
  CHLORIDE: 100 MEQ/L
  CHOLESTEROL: 67 mg/dL
  CREATINE PHOSPHOKINASE: 284 u/L
  CREATININE: 0.2 mg/dL
  GLUCOSE: 152.33 mg/dL
  LACTATE DEHYDROGENASE: 108.67 u/L
  LIPASE: 8.17 u/L
  PHOSPHORUS: 11.17 mg/dL
  POTASSIUM: 6.14 MEQ/L
  SODIUM: 144.68 MEQ/L
  TOTAL BILIRUBIN: 0.22 mg/dL
  TOTAL PROTEIN: 6.08 G/DL
  URIC ACID: 1.27 mg/dL
[3]
  ABSOLUTE BASOPHIL: 0 CELLS/uL
  ABSOLUTE EOSINOPHIL: 189.33 CELLS/uL
  ABSOLUTE LYMPHOCYTE: 10886.33 CELLS/uL
  ABSOLUTE MONOCYTE: 47.33 CELLS/uL
  ABSOLUTE SEGMENTED NEUTROPHIL: 1443.67 CELLS/uL
  BASOPHIL: 0%
  EOSINOPHIL: 1.33%
  ERYTHROCYTE COUNT: 5.55 x10E6/uL
  HEMATOCRIT: 35.67%
  HEMOGLOBIN: 13.2 G/DL
  LEUKOCYTE COUNT: 12.57 x10E3/uL
  LYMPHOCYTE: 86.67%
  MEAN CORPUSCULAR HEMOGLOBIN: 23.77 pg
  MEAN CORPUSCULAR HEMOGLOBIN CONCENTRATION: 37 G/DL
  MEAN CORPUSCULAR VOLUME: 64.2 fL
  MONOCYTE: 0.33%
  NEUTROPHIL: 11.67%
  NUCLEATED RED BLOOD CELLS: 0 /100WBC
  PLATELET COUNT: 1296 x10E3/uL
  ALANINE AMINOTRANSFERASE: 52.67 u/L
  ALBUMIN: 4.2 G/DL
  ALKALINE PHOSPHATASE: 382.67 u/L
  ASPARTATE AMINOTRANSFERASE: 73.67 u/L
  BLOOD UREA NITROGEN: 15 mg/dL
  CARBON DIOXIDE: 27 mmol/L
  CHLORIDE: 99 MEQ/L
  CHOLESTEROL: 70.33 mg/dL
  CREATINE PHOSPHOKINASE: 215.33 u/L
  CREATININE: 0.16 mg/dL
  GLUCOSE: 166.33 mg/dL
  LACTATE DEHYDROGENASE: 88 u/L
  LIPASE: 8 u/L
  PHOSPHORUS: 12.23 mg/dL
  POTASSIUM: 6.54 MEQ/L
  SODIUM: 144.1 MEQ/L
  TOTAL BILIRUBIN: 0.27 mg/dL
  TOTAL PROTEIN: 5.93 G/DL
  URIC ACID: 1.97 mg/dL
[4]
  ABSOLUTE BASOPHIL: 0 CELLS/uL
  ABSOLUTE EOSINOPHIL: 66.67 CELLS/uL
  ABSOLUTE LYMPHOCYTE: 12127.33 CELLS/uL
  ABSOLUTE MONOCYTE: 105.67 CELLS/uL
  ABSOLUTE SEGMENTED NEUTROPHIL: 1600.33 CELLS/uL
  BASOPHIL: 0%
  EOSINOPHIL: 0.67%
  ERYTHROCYTE COUNT: 5.76 x10E6/uL
  HEMATOCRIT: 36.63%
  HEMOGLOBIN: 13.7 G/DL
  LEUKOCYTE COUNT: 13.9 x10E3/uL
  LYMPHOCYTE: 88.33%
  MEAN CORPUSCULAR HEMOGLOBIN: 23.77 pg
  MEAN CORPUSCULAR HEMOGLOBIN CONCENTRATION: 37.4 G/DL
  MEAN CORPUSCULAR VOLUME: 63.6 fL
  MONOCYTE: 0.67%
  NEUTROPHIL: 10.33%
  NUCLEATED RED BLOOD CELLS: 0 /100WBC
  PLATELET COUNT: 1337.67 x10E3/uL
  ALANINE AMINOTRANSFERASE: 44 u/L
  ALBUMIN: 4.3 G/DL
  ALKALINE PHOSPHATASE: 417.67 u/L
  ASPARTATE AMINOTRANSFERASE: 84.33 u/L
  BLOOD UREA NITROGEN: 17.33 mg/dL
  CARBON DIOXIDE: 25.67 mmol/L
  CHLORIDE: 102.33 MEQ/L
  CHOLESTEROL: 74.67 mg/dL
  CREATINE PHOSPHOKINASE: 260 u/L
  CREATININE: 0.26 mg/dL
  GLUCOSE: 167.33 mg/dL
  LACTATE DEHYDROGENASE: 187.67 u/L
  LIPASE: 8.67 u/L
  PHOSPHORUS: 11.83 mg/dL
  POTASSIUM: 6.55 MEQ/L
  SODIUM: 145.07 MEQ/L
  TOTAL BILIRUBIN: 0.17 mg/dL
  TOTAL PROTEIN: 6.2 G/DL
  URIC ACID: 1.8 mg/dL
